In this test the test system is live tissue containing AD7C-NTP. Kind of test: Prevention/inhibition of AD7C-NTP-induced necrosis of live tissue by Harlil sequences injected with AD7C-NTP into rats, histopathology. Type of test: in vivo. The following applies: injected together with AD7C-NTP 100 ng/mL-10 µg/mL, 24 hours, compared to control samples injected with AD7C-NTP alone. The protocol:
AD7C-NTP was obtained as described above in Example 1.
The Harlil sequences NTP-1, NTP-3, and NTP-7 prepared in accordance with Example 2 above were used in this example.
Recombinant AD7C-NTP samples 100 ng/mL-10 µg/mL were incubated at room temperature for 5 minutes to one hour with the aforementioned Harlil sequences and then injected into rats as described in Example 1.
Alternatively, a solution of the Harlil sequence was made up in concentrations ranging from 1 microgram/mL to 1 milligram/mL. Solutions containing the recombinant AD7C-NTP also were made up as described above, without the addition of the Harlil sequence. The animals were injected with about 100 microliters of the AD7C-NTP solution, and with about 100 microliters of the Harlil solution.
The 24 individual foci of infiltration were excised, fixed in 10% formalin, embedded in paraffin, and stained and examined by standard histopathological methods.
Similar groups of control rats were injected with (1) AD7C-NTP alone as described in Example 1, (2) bovine serum albumin in saline, (3) normal human serum, and (4) physiological saline, and examined and sacrificed as above, with the excised foci of injection treated as above.

As for “L H A R L C L A N F C G R N R V (LHARLCLANFCGRNRV) [NTP-1]”, the “reduction in tissue necrosis” value was “over 95%”.

The record behind these values is EP1541166B1, “Preventing cell death using segments of neural thread proteins” (NYMOX CORPORATION, priority 2001, dated 2007).
